Source: article PMC6934700, “Structure-Guided Design of a Fluorescent Probe for the Visualization of FtsZ in Clinically Important Gram-Positive and Gram-Negative Bacterial Pathogens” (Scientific Reports, 2019)
Where two headings read alike, the source gives them in different places.

What was measured:
[1] = tested on: FtsZ in S. agalactiae ATCC 12386 cells; assay: FtsZ visualization by fluorescence microscopy in live cells; assay type: cell-based, Streptococcus agalactiae; settings: 1 µg/mL for 5 minutes
Protocol: (§1) All differential interference contrast (DIC) and fluorescence microscopy experiments were conducted using an Olympus BX50 microscope equipped with an X-cite Exacte 200 W mercury lamp, a 100× Olympus UPLSAPO oil immersion objective (1.40 aperture), as well as both Chroma ET-EGFP (FITC/Cy2) and ET mCherry, Texas Red filters. Images were captured using a QImaging Retiga R3 charge-coupled device (CCD) camera and the Ocular-Version 2.0 software package (QImaging).
(§2) For visualizing FtsZ in Gram-positive bacteria using BOFP, the bacterial cells were grown to log-phase in media suitable for each individual pathogen. Specifically, S. aureus NRS705 (MRSA) was grown in tryptic soy broth (TSB), E. faecalis ATCC 29212 and E. faecium ATCC 19434 were grown in lactobacilli MRS broth, S. agalactiae ATCC 12386 and S. pneumoniae ATCC 49619 were grown in TH broth, and S. pyogenes ATCC 19615 was grown in CAMH broth supplemented with 3% (v/v) LHB. For each Gram-positive bacterial strain, a total of 1 mL of cell culture was centrifuged at 15,000 × g for 1 minute and washed 2–3 times with 1 mL of PBS. After the final wash, the pelleted cells were resuspended in 500 µL of PBS containing 1 µg/mL of BOFP and incubated in the dark for 5 minutes at room temperature. The cells were then centrifuged at 15,000 × g for 1 minute, washed twice with 1 mL of PBS, and subsequently resuspended in 200 µL of PBS. […]

[2] = biological target: E. faecalis (EfsFtsZ) (Enterococcus faecalis, UniProt O08439); assay: Fluorescence anisotropy binding of BOFP to EfsFtsZ; settings: for Kd: 50 mM Tris-HCl (pH 7.6), 50 mM KCl, 0.1 µM BOFP
Protocol: (§3) Fluorescence anisotropy experiments were performed using an AVIV model ATF105 spectrofluorometer at 15, 25, or 37 °C. In these experiments, bandwidths were set to 4 nm in both the excitation and emission directions, with the excitation and emission wavelengths being set at 488 nm and 510 nm, respectively. BOFP (0.1 µM) was titrated with increasing concentrations (ranging from 0 to 12 µM) of FtsZ in 120 µL of buffer containing 50 mM Tris-HCl (pH 7.6) and 50 mM KCl. After each protein addition, the samples were equilibrated for 3 minutes, whereupon the fluorescence anisotropy was measured.
(§4) In this equation, r0 is the anisotropy of the protein-free compound, r∞ is the anisotropy of the compound in the presence of an infinite concentration of FtsZ, [C]tot is the total concentration of the compound, and [P]tot is the total concentration of protein with each addition. These analyses yielded the equilibrium dissociation constant (Kd) for each binding reaction.
(§5) The binding free energy (ΔG) at temperature T was derived from the corresponding Kd value determined at T using the following relationship:2 ΔG=−RTln(1/Kd)
(§6) The binding enthalpy (ΔH) and entropy (ΔS) were derived from linear fits of the ln(1/Kd) vs. 1/T plots shown in Figs. 3f and 5e using the following relationship:3 ln(1/Kd)=−ΔH/R(1/T)+ΔS/R

[3] = tested on: FtsZ in S. pneumoniae ATCC 49619 cells; assay: FtsZ visualization by fluorescence microscopy in live cells; assay type: cell-based, Streptococcus pneumoniae; settings: 1 µg/mL for 5 minutes
Protocol: as §1, §2

[4] = tested on: FtsZ in K. pneumoniae ATCC 13883 cells; assay: as above; assay type: cell-based, Klebsiella pneumoniae; settings: 1 µg/mL for 5 minutes
Protocol: as §1
For visualizing FtsZ in Gram-negative bacteria using BOFP, E. coli ATCC 25922, K. pneumoniae ATCC 13883, P. aeruginosa ATCC 27853, and A. baumannii ATCC 19606 were grown to log-phase in CAMH broth. For each Gram-negative bacterial strain, a total of 1 mL of cell culture was centrifuged at 15,000 × g for 1 minute and washed twice with 1 mL of Tris-buffered saline (TBS) composed of 50 mM Tris-HCl (pH 7.6) and 150 mM NaCl. After the final wash, the pelleted cells were resuspended in 500 µL of TBS containing 1 µg/mL of BOFP and pentamidine isethionate (at 0.875 mg/mL for E. coli and 3.5 mg/mL for the other three strains). The resuspended cells were then incubated in the dark for 5 minutes at room temperature, centrifuged at 15,000 × g for 1 minute, washed twice with 1 mL of TBS, and subsequently resuspended in 200 µL of TBS. This final cell suspension was then prepared for microscopy as described for the Gram-positive bacterial strains. Comparative control experiments with 1 µg/mL BODIPY FL-COOH were conducted in K. pneumoniae ATCC 13883 cells as described above for BOFP.

[5] = biological target: T1, A. baumannii (AbFtsZ) (Acinetobacter baumannii, UniProt V5V8B6); assay: Fluorescence anisotropy binding of BOFP to AbFtsZ; settings: for Kd: 50 mM Tris-HCl (pH 7.6), 50 mM KCl, 0.1 µM BOFP
T1 sequence (V5V8B6 1-391): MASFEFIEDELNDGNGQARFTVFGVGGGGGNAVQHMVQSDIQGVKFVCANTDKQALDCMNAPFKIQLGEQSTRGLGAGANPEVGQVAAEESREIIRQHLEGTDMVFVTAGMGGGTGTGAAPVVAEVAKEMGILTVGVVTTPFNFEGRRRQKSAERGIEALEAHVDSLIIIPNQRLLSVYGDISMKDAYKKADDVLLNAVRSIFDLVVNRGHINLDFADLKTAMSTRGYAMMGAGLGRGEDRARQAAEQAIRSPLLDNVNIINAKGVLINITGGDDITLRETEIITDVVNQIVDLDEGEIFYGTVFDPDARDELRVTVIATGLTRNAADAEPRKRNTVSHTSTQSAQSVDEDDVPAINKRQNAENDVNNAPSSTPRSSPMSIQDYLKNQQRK
Protocol: as §3, §4, §5, §6

[6] = from linear fit of ln(1/Kd) vs. 1/T

E. faecalis (EfsFtsZ), sequence (O08439 whole entry): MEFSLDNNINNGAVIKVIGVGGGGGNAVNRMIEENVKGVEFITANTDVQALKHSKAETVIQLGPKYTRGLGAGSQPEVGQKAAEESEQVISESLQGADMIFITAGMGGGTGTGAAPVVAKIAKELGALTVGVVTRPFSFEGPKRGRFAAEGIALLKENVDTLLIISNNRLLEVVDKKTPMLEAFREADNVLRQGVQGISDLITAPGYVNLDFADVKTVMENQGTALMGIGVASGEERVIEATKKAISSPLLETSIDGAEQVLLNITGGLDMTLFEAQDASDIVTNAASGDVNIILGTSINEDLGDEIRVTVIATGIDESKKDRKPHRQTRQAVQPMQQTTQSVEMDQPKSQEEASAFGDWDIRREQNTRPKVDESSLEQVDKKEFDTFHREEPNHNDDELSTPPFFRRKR

CC1=CC(C)=[N+]2C1=Cc1ccc(CCC(=O)OCC(Oc3ccc(F)c(C(N)=O)c3F)c3nc(-c4ccc(C(F)(F)F)cc4)c(Br)o3)n1[B-]2(F)F (centres unmarked) [BOFP]
Fluorescence staining / FtsZ labeling in live cells [1]: bright bands of fluorescence staining are clearly visible at midcell | Kd ([2]; Kd - 15 °C, 15 °C): 1720 ± 60 nM | Kd ([2]; Kd - 25 °C, 25 °C): 3050 ± 250 nM | Kd ([2]; Kd - 37 °C, 37 °C): 4620 ± 120 nM | ΔG ([2]; calculated at T = 310 K (37 °C) from Kd): -7.6 ± 0.1 kcal/mol | ΔH [2, 6]: -7.9 ± 1.0 kcal/mol | ΔS [2, 6]: −1.2 ± 3.3 cal/mol•K | Fluorescence staining / FtsZ labeling in live cells [3]: bright bands of fluorescence staining are clearly visible at midcell | Fluorescence staining / FtsZ labeling in live cells ([4]; co-treated with 3.5 mg/mL pentamidine isethionate): bright fluorescence staining becomes visible both at midcell and along the cell periphery | Fluorescence staining / FtsZ labeling in live cells ([4]; without pentamidine isethionate): little or no FtsZ labeling | Kd ([5]; 15 °C, read-out: Kd - 15 °C): 400 ± 30 nM | Kd ([5]; 25 °C, read-out: Kd - 25 °C): 550 ± 20 nM | Kd ([5]; 37 °C, read-out: Kd - 37 °C): 680 ± 40 nM | ΔH [5, 6]: -4.2 ± 0.6 kcal/mol
